Literature values, collected in patent US4220642A, “Vasoactive lung polypeptides” (priority 1978, dated 1980).

What was measured:
[1] = tested on: guinea pig trachea, ileum, gallbladder, pulmonary artery, "lung"; conditions: trachea (F2 α)
[2] = tested on: rat stomach strip, rat colon; conditions: rat stomach strip and colon

Row | Compound | contraction of chick rectum by prostaglandins (chick rectum) | contraction of guinea pig smooth-muscle organs by prostaglandins [1] | contraction of rat smooth-muscle organs by prostaglandins [2]
1 | Prostaglandin F2 α | contracting | contracts | contracting
2 | CCCCC[C@H](O)/C=C/[C@H]1[C@H](O)CC(=O)[C@@H]1C/C=C\CCCC(=O)O [Prostaglandin E2] | contract | contract | contract
3 | CCCCC[C@H](O)/C=C/[C@H]1[C@H](O)CC(=O)[C@@H]1CCCCCCC(=O)O [Prostaglandin E1] | contract | contract | contract
